Laboratory results from ChEMBL document CHEMBL2157927, “Imidazotriazinone compounds: patent highlight” (ACS Med Chem Lett, 2012).

Tests used:
[1] = Inhibition of PDE9 by spectrophotometric analysis
[2] = Selectivity ratio of IC50 for PDE1B to IC50 for PDE9
[3] = Selectivity ratio of IC50 for PDE1A to IC50 for PDE9

IC50 [1] | Ratio IC50 [2] | Ratio IC50 [3] | Compound
< 1000 nM | > 1000 | > 1000 | C[C@@H]1CN(Cc2cccc(F)c2)C[C@H]1c1nn2c(C3CCOCC3)ncc2c(=O)[nH]1
1000 nM |  |  | C[C@@H]1CN(Cc2cnccn2)C[C@H]1c1nn2c(C3CCOCC3)ncc2c(=O)[nH]1
> 10000 nM |  |  | C[C@@H]1CN(Cc2ncccn2)C[C@H]1c1nn2c(C3CCOCC3)ncc2c(=O)[nH]1
